# Experimental data taken from US20260041679A1, “METHOD OF TREATING HYPERTENSION WITH THE ALDOSTERONE SYNTHASE INHIBITOR BAXDROSTAT” (CINCOR PHARMA, INC., priority 2022, published 2026).
# Where two headings read alike, the source gives them in different places. Marks after values point to notes of the source that are not given here.
# Experiments:
# [1] = Pharmacokinetics in subjects with varying degrees of renal function (Example 4); format: in vivo, human; details: for half-life / Tmax / AUC(0-inf) / AUC(0-t) / Cmax / Vd/F: human, plasma, oral, 10 mg; for AUC(0-inf): read-out: AUC0-inf, mean (SD); for AUC(0-t): read-out: AUC0-last, mean (SD); for Cmax: read-out: Cmax, mean (SD); for Vd/F: read-out: Vz/F, mean (SD)
# Description: This phase 1, open-label, single-dose, parallel-group study was designed in accordance with the FDA guidance for the design and analysis of studies that assess the influence of impaired renal function on PK. Subjects were enrolled into three renal function groups defined based on eGFR calculated using the Chronic Kidney Disease Epidemiology Collaboration equation as follows: […]
# Control(normal renal function or mild renal impairment:eGFR≥60 mL/min) • Moderate to severe renal impairment (eGFR 15 to 59 mL/min) • Kidney failure (eGFR<15 mL/min, including subjects on dialysis)
# All subjects received a single 10 mg dose of baxdrostat in an open-label manner. […] All subjects were required to fast for a minimum of 10 hours prior to baxdrostat administration. They were then dosed at 8:00 AM (±2 hours) with two 5 mg tablets administered with approximately 240 mL of water. Subjects continued fasting for a minimum of 4 hours after dosing. No other medications were permitted within 2 hours prior to dosing and for 2 hours after dosing with baxdrostat. Subjects on dialysis received the study drug on a non-dialysis day. Blood and urine sample collection for PK analysis continued for 7 days and was proceeded by a follow-up phone call 3±1 days after clinic discharge.
# Plasma and urine samples were analyzed to measure concentrations of baxdrostat and its primary metabolite (baxdrostat-M) using a validated LC-MS/MS method. “Baxdrostat-M” as used herein refers a compound having the following structure:
# Blood and urine samples were collected prior to and after dosing for measurement of plasma and urine baxdrostat and baxdrostat-M concentrations to characterize maximum observed plasma concentration (Cmax), time to Cmax (Tmax), AUC0-last, and AUC0-inf for baxdrostat and baxdrostat-M. The t1/2, CL/F, and V/F were calculated for plasma baxdrostat only. Urine PK parameters included the cumulative amount of baxdrostat and baxdrostat-M excreted in urine (Ae), renal clearance (CLR) of baxdrostat and baxdrostat-M, and fraction of dose excreted renally (Fe) for baxdrostat.
# [2] = biological target: T1, aldosterone synthase (Homo sapiens, UniProt P19099); test: Multiple ascending dose study, pharmacodynamics: plasma aldosterone, cortisol, electrolytes (Example 2); format: in vivo
# T1 construct: Pharmacodynamic measurements included plasma aldosterone, cortisol, and electrolytes; endogenous in cells; host or cells: human subjects in vivo (healthy volunteers; resistant hypertension patients)
# T1 sequence (P19099 25-503): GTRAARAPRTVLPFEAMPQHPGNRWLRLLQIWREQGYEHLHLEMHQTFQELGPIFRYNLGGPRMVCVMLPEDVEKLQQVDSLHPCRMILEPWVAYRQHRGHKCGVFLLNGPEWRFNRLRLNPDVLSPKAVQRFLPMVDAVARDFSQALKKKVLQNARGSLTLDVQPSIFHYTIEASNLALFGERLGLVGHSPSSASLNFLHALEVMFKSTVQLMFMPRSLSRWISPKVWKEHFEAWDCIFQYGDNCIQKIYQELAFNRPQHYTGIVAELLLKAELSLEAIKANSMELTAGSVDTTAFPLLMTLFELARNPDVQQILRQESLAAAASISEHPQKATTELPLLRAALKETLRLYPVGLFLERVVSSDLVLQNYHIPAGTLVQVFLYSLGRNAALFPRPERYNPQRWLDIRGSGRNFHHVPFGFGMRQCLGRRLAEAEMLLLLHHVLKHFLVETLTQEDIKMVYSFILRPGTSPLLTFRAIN
# Description: (§1) This randomized, double-blind, placebo-controlled phase 1 study evaluated the safety, pharmacokinetics, and pharmacodynamics of multiple ascending doses of baxdrostat in healthy volunteers. Fifty-six subjects were randomized to receive oral baxdrostat (0.5, 1.5, 2.5, or 5.0 mg) or placebo once daily for ten days and were placed on either a low salt or normal salt diet for the duration of the study. In particular, subjects were randomized into 5 cohorts to receive baxdrostat or placebo once daily for 10 days. Cohorts 1 and 2 were placed on a low salt diet to stimulate aldosterone production and were administered 2.5 or 5.0 mg oral baxdrostat, respectively. Cohorts 1 and 2 also underwent an adrenocorticotropic hormone (ACTH) challenge to increase aldosterone and cortisol levels to evaluate the specificity of baxdrostat for targeting aldosterone synthase. Cohorts 3, 4, and 5 were placed on a normal salt diet and were administered 1.5, 2.5, or 0.5 mg oral baxdrostat, respectively. Blood samples were collected prior to and after dosing on days 1 and 10 for measurement of plasma baxdrostat concentrations to characterize single-dose and steady-state pharmacokinetics. Pharmacodynamic measurements included plasma aldosterone, cortisol, and electrolytes. Safety assessments included physical examination, electrocardiograms, orthostatic vital signs, and clinical laboratory evaluations.
# [3] = Multiple ascending dose study, safety (Example 2); format: in vivo, human; details: 0.5 to 5.0 mg once daily, 10 days
# Description: as §1
# [4] = Relative bioavailability tablet vs oral solution and food effect (Example 3); format: in vivo, human; details: for Tmax: human, plasma, oral, 5 mg
# Description: The relative bioavailability of a tablet formulation of baxdrostat was compared to the oral solution of baxdrostat that was administered in the SAD (Example 1) and MAD (Example 2) studies. A single 5 mg dose of each formulation in fourteen healthy volunteers established that plasma levels of baxdrostat were equivalent whether administered using the oral solution or tablet. This study also assessed the effect of a standardized high-fat meal on the PK of baxdrostat.
# [5] = Absorption, metabolism and excretion of [14C]-baxdrostat (Example 7); format: in vivo, human
# Description: Eight male subjects each received a single oral 10 mg (containing approximately 100 uCi) dose of baxdrostat. Blood, urine and fecal samples were collected to determine the metabolic and excretion pathways of baxdrostat. Preliminary findings indicate that the mean excretion of radioactivity was 69.4% and 15.3%, of the dose in the urine and feces, respectively. Unchanged baxdrostat was the major component in urine and feces, constituting 16.8% and 6.1% of the dose, respectively.
# [6] = control eGFR ≥60 mL/min, single 10 mg
# [7] = kidney failure eGFR <15 mL/min, single 10 mg
# [8] = moderate to severe renal impairment eGFR 15-59 mL/min, single 10 mg
# [9] = single oral 10 mg [14C] dose, preliminary findings
compound,measurement,setting,value
"CCC(=O)N[C@@H]1CCCc2c(-c3ccc4c(c3)CCC(=O)N4C)cncc21 [baxdrostat, (R)—N-(4-(1-methyl-2-oxo-1,2,3,4-tetrahydroquinolin-6-yl)-5,6,7,8-tetrahydroisoquinolin-8-yl) propionamide]",recovered unchanged in the urine,[1]; control and moderate to severe renal impairment groups,Approximately 12%
same,"CL/F, mean (SD)",[1]; [6],3.06 (0.9) L/h
same,"Fe (urine), mean (CV %)",[1]; [6],12.53 (38.1) %
same,half-life,"[1]; across renal function groups, read-out: average half-life",30 to 42 h
same,Tmax,"[1]; all renal function groups, single 10 mg, read-out: median Tmax",≤ 1.5 h
same,AUC(0-inf),[1]; [6],3530 ng·h/mL
same,AUC(0-t),[1]; [6],3380 ng·h/mL
same,Cmax,[1]; [6],108 ng/mL
same,Tmax,"[1]; control eGFR ≥60 mL/min, single 10 mg, read-out: Tmax, mean (SD)",2.1 h
same,Vd/F,[1]; [6],146 L
same,half-life,"[1]; control eGFR ≥60 mL/min, single 10 mg, read-out: t1/2, mean (SD) (converted)",35.6 h
same,AUC(0-inf),[1]; [7],2660 ng·h/mL
same,AUC(0-t),[1]; [7],2570 ng·h/mL
same,Cmax,[1]; [7],96 ng/mL
same,Tmax,"[1]; kidney failure eGFR <15 mL/min, single 10 mg, read-out: Tmax, mean (SD)",1.63 h
same,Vd/F,[1]; [7],200 L
same,AUC(0-inf),[1]; [8],4340 ng·h/mL
same,AUC(0-t),[1]; [8],4010 ng·h/mL
same,Cmax,[1]; [8],110 ng/mL
same,Tmax,"[1]; moderate to severe renal impairment eGFR 15-59 mL/min, single 10 mg, read-out: Tmax, mean (SD)",1.82 h
same,Vd/F,[1]; [8],142 L
same,half-life,"[1]; moderate to severe renal impairment eGFR 15-59 mL/min, single 10 mg, read-out: t1/2, mean (SD) (converted)",42.1 h
same,"CL/F, mean (SD)",[1]; [7],5.07 (2.9) L/h
same,"Fe (urine), mean (CV %)",[1]; [7],0.91 (60.7)* %
same,"t1/2, mean (SD)",[1]; [7],29.70 (10.5) h
same,renal excretion,[1]; kidney failure group,minimal renal excretion
same,"CL/F, mean (SD)",[1]; [8],2.60 (1.0) L/h
same,"Fe (urine), mean (CV %)",[1]; [8],11.81 (26.0) %
same,"effect of renal impairment on Cmax, AUC, half-life, apparent plasma clearance, renal clearance",[1]; pairwise comparisons versus control,no meaningful effect
same,"plasma aldosterone, reduction",[2]; Day 10,51-73%
same,plasma aldosterone,"[2]; doses ≥1.5 mg, regardless of diet",dose-dependent reduction of plasma aldosterone
same,plasma cortisol,"[2]; once daily, 10 days",no meaningful impact on plasma cortisol
same,plasma sodium levels,"[2]; once daily, 10 days",mild dose-dependent decreases in plasma sodium levels
same,potassium levels,"[2]; once daily, 10 days",increases in potassium levels
same,deaths or serious adverse events,[3],no deaths or serious adverse events
same,severity of treatment-emergent adverse events,[3],mild in severity
same,Tmax,[4]; fasted state,~3 h
same,Tmax,[4]; fed state (high-fat meal),~4 h
same,"plasma levels, oral solution vs tablet",[4]; single 5 mg dose of each formulation,equivalent
same,effect of high-fat meal on plasma levels,"[4]; tablet, single 5 mg",no noteworthy effect
same,mean blood:plasma concentration ratios,[5]; radioactivity,low association of radioactivity with blood cells
same,share of total systemic exposure by AUC0-inf in plasma,[5]; single oral 10 mg [14C] dose,71%
same,unchanged baxdrostat in feces,[5]; single oral 10 mg [14C] dose,6.1 % of the dose
same,unchanged baxdrostat in urine,[5]; single oral 10 mg [14C] dose,16.8 % of the dose
same,mean excretion of radioactivity in feces,[5]; [9],15.3 % of the dose
same,mean excretion of radioactivity in urine,[5]; [9],69.4 % of the dose
